We go through five compounds from patent publication US20230416765A1, “AGROBACTERIUM RHIZOGENES AND METHODS OF TRANSFORMING CELLS” (priority 2020, published 2023).

The assay has as its system MSU440. Kind of assay: Antibiotic susceptibility test on MSU440. The format is cell-based, Agrobacterium rhizogenes. The text has this: The development of a disarmed strain of MSU440 relied on a selectable marker (an antibiotic resistance gene or the counter-selectable marker sacB). Antibiotic susceptibility test on MSU440 were formed with the antibiotics outlined in Table 5.

The mark [1] stands for this setting: MSU440 response to antibiotic at 50 ug/mL.

With `[H]/N=C(/N)N[C@H]1[C@H](O)[C@@H](O)[C@H](O[C@@H]2O[C@@H](C)[C@](O)(C=O)[C@H]2O[C@@H]2O[C@@H](CO)[C@H](O)[C@@H](O)[C@@H]2NC)[C@@H](N/C(N)=N\[H])[C@@H]1O` [streptomycin], the Resistant or susceptible entry under setting [1] is on record as “resistant”.

On to `CC1(C)S[C@@H]2[C@H](NC(=O)C(C(=O)O)c3ccccc3)C(=O)N2[C@H]1C(=O)O` (some centres unmarked) [carbenicillin], for which, where the note is “MSU440 response to antibiotic at 100 ug/mL”, the Resistant or susceptible result is “susceptible”.

Turning to gentamicin, the Resistant or susceptible result (MSU440 response to antibiotic at 35 ug/mL) is “susceptible”. With `CN[C@@H]1[C@H](O)[C@H](NC)[C@H]2O[C@@]3(O)C(=O)C[C@@H](C)O[C@H]3O[C@@H]2[C@H]1O` [spectinomycin], the Resistant or susceptible result under setting [1] is “resistant”.

In the case of `O=C(N[C@H](CO)[C@H](O)c1ccc([N+](=O)[O-])cc1)C(Cl)Cl` [chloramphenicol], the Resistant or susceptible entry (MSU440 response to antibiotic at 30 ug/mL) is listed as “resistant”.
